Experimental data taken from patent US12399427B2, “Photobase generator, compound, photoreactive composition and reaction product” (Tokyo University of Science Foundation, priority 2019, dated 2025).

What was measured:
[1] = Solubility of the compound in solvents (amount of solvent required to dissolve 10 mg); assay type: physicochemical
Protocol: Moreover, the solubility of the compound (1)-1 in the solvent was confirmed. Specifically, the amount of the solvent required to dissolve 10 mg of the compound (1)-1 was confirmed for each solvent. The amount of the solvent required was from 1 mL to 5 mL when tetrahydrofuran or acetone was used, and 1 mL or less when cyclopentanone, methanol or dimethyl sulfoxide was used.

[2] = Behavior of compound in methanol under light irradiation with wavelength of 313 nm or 365 nm (absorbance; Test Examples 1, 2, 8, 9); assay type: physicochemical; conditions: 2.0×10^−5 mol/L; for molar absorption coefficient ε313: 313 nm; for molar absorption coefficient ε365: 365 nm
Protocol: (§1) The compound (1)-1 obtained above was dissolved in methanol so as to have a concentration of 2.0×10^−5 mol/L. Then, using a mercury xenon lamp, the illuminance was set to 5 mW/cm^2, the exposure doses were set to 0, 10, 30, 60 and 100 mJ/cm^2, and the obtained methanol solution was irradiated with light having a wavelength of 313 nm. Then, the absorbance of the compound (1)-1 was measured.
as §1, with “using an LED” for “using a mercury xenon”, “to 10” for “to 5”, “of 365” for “of 313”
as §1, with “compound (1)-2” for “compound (1)-1”, “to 10” for “to 5”, “0,” for “0, 10,”, “30, 100, 200” for “30, 60”, “and 300” for “and 100”
The compound (1)-2 obtained above was dissolved in methanol so as to have a concentration of 2.0×10^−5 mol/L. Then, using an LED lamp, the illuminance was set to 10 mW/cm^2, the exposure doses were set to 0, 30, 100, 200 and 300 mJ/cm^2, and the obtained methanol solution was irradiated with light having a wavelength of 365 nm. Then, the absorbance of the compound (1)-2 was measured.

[3] = Production of reaction product using photoreactive composition including compound (2) (Test Example 12); conditions: 365 nm, up to 10000 mJ/cm^2, post-bake 160° C. 20 minutes
Protocol: Polyglycidylmethyl acrylate (PGMA, 0.1 g, molecular weight; 22000) showing the structure above, the compound (2) (0.005 g) and tetrahydrofuran (1 g) were blended and stirred at 25° C. for 1 minute to obtain a photoreactive composition.
The photoreactive compositions obtained above was applied onto a silicon wafer by a spin coating method under the conditions of 1500 rpm and 30 seconds. Next, after heating (pre-baking) this coating film (photoreactive composition layer) at 100° C. for 1 minutes, using a Hg—Xe lamp, the coating film was irradiated with light having a wavelength of 365 nm with an illuminance of 50 mW/cm^2 and the exposure doses of 0 mJ/cm^2 to 10000 mJ/cm^2. After light irradiation, the coating film was heated (post-baked) 160° C. for 20 minutes. The coating film after heated was developed with tetrahydrofuran for 30 seconds, and then the ratio of the thickness of the coating film after development to the coating film before light irradiation was measured.

| amount of the solvent required to dissolve 10 mg ([1]; cyclopentanone) [mL] | amount of the solvent required to dissolve 10 mg ([1]; dimethyl sulfoxide) [mL] | amount of the solvent required to dissolve 10 mg ([1]; methanol) [mL] | molar absorption coefficient ε313 [2] [L/mol/cm] | molar absorption coefficient ε365 [2] [L/mol/cm] | production of an insolubilized reaction product [3] | Compound |
| --- | --- | --- | --- | --- | --- | --- |
| ≤ 1 | ≤ 1 | ≤ 1 | 23000 | 6900 | – | O=C(/C=C/c1ccccc1O)Nc1ccncc1 [compound (1)-1] |
| – | – | – | 13000 | 3200 | – | CN(C(=O)/C=C/c1ccccc1O)c1ccncc1 [compound (1)-2] |
| – | – | – | – | – | could not be produced | O=C(/C=C/c1ccccc1O)NC1CCCCC1 [compound (2)] |
